In ChEMBL document CHEMBL1126745, “2,2-Dialkylnaphthalen-1-ones as new potassium channel activators” (J Med Chem, 1993):

Assays:
Cavia porcellus [1] = organism: Cavia porcellus; assay: In vitro inhibition of spontaneous tone of guinea pig tracheal spirals; format: functional; settings: Trachea
Rattus norvegicus [2] = organism: Rattus norvegicus; assay: Percentage of inhibition of noradrenaline-induced contractions in rat portal vein at 10 uM (in vitro); format: functional
Rattus norvegicus [3] = assay: Change in systolic blood pressure at intervals of 1 hr after oral administration of 1 mg/kg of compound in spontaneously hypertensive rats (in vivo); Not significant; format: functional, Artery
Rattus norvegicus [4] = organism: Rattus norvegicus; assay: In vitro inhibition of noradrenaline-induced contractions in rat portal vein; format: functional
Rattus norvegicus [5] = assay: Effective dose (after peroral administration) required to decrease systolic blood pressure by 30 mmHg in spontaneously hypertensive rats (SHR); format: functional; settings: Artery, po
Rattus norvegicus [6] = assay: Change in systolic blood pressure at intervals of 1 hr after oral administration of 1 mg/kg of compound in spontaneously hypertensive rats (in vivo); format: functional, Artery
Rattus norvegicus [7] = assay: Change in systolic blood pressure at intervals of 1 hr after oral administration of 0.1 mg/kg of compound in spontaneously hypertensive rats (in vivo); format: functional, Artery
Rattus norvegicus [8] = organism: Rattus norvegicus; assay: Inhibition of noradrenaline-induced contractions in rat portal vein; Insoluble; format: functional
Cavia porcellus [9] = organism: Cavia porcellus; assay: Inhibition of spontaneous tone of guinea pig tracheal spirals; Insoluble; format: functional, Trachea

Row | Compound | IC50 (Cavia porcellus [1]) | IC50 (Rattus norvegicus [4]) | ED30 (Rattus norvegicus [5]) | also measured
1 | CC1(C)C(=O)c2ccc(C#N)cc2[C@@H](NC(=O)c2ccc(Cl)c(Cl)c2)[C@@H]1O | > 10000 nM | – | – | inhibition at 10 µM (Rattus norvegicus [2]): 67%; Delta blood pressure (Rattus norvegicus [3]): <20 mmHg
2 | CC1(C)C=C(n2ccccc2=O)c2cc(C#N)ccc2C1=O | 500 nM | 600 nM | 4 µg/kg | –
3 | CC1(C)C(=O)c2ccc(C#N)cc2[C@@H](Oc2ccc(=O)[nH]n2)[C@@H]1O | 2100 nM | 8800 nM | 6 µg/kg | –
4 | C/C(=N/[C@@H]1c2cc(C#N)ccc2C(=O)C(C)(C)[C@H]1O)NC#N | 3500 nM | – | – | inhibition at 10 µM (Rattus norvegicus [2]): 19%; Delta blood pressure (Rattus norvegicus [3]): <20 mmHg
5 | CC(=O)OC1c2ccc(Br)cc2C(n2ccccc2=O)=CC1(C)C (configuration not stated) | > 10000 nM | – | – | inhibition at 10 µM (Rattus norvegicus [2]): 38%; Delta blood pressure (Rattus norvegicus [3]): <20 mmHg
6 | Cn1nc(O[C@@H]2c3cc(C#N)ccc3C(=O)C(C)(C)[C@H]2O)ccc1=O | 600 nM | 2800 nM | 40 µg/kg | –
7 | CC1(C)C=C(n2ccccc2=O)c2cc(C#C[Si](C)(C)C)ccc2C1=O | 2400 nM | 500 nM | 5 µg/kg | –
8 | C#Cc1ccc2c(c1)C(n1ccccc1=O)=CC(C)(C)C2=O | 200 nM | 1000 nM | 2 µg/kg | Max fall in blood pressure (Rattus norvegicus [6]): 94 mmHg
9 | CC1(C)C=C(n2ccccc2=O)c2cc(C(F)(F)C(F)(F)F)ccc2C1=O | – | – | 2 µg/kg | Max fall in blood pressure (Rattus norvegicus [7]): 81 mmHg; IC50 (Rattus norvegicus [8]): Insoluble; IC50 (Cavia porcellus [9]): Insoluble
10 | CC1(C)C=C(n2ccccc2=O)c2cc(C(F)(F)F)ccc2C1=O | 500 nM | 300 nM | 5 µg/kg | –
11 | CC1(C)C=C(n2ccccc2=O)c2cc(Br)ccc2C1=O | 200 nM | 500 nM | 9 µg/kg | Max fall in blood pressure (Rattus norvegicus [7]): 42.6 mmHg
12 | CC1(C)C=C(n2ccccc2=O)c2cc(C(N)=O)ccc2C1=O | > 10000 nM | – | – | inhibition at 10 µM (Rattus norvegicus [2]): 21%; Delta blood pressure (Rattus norvegicus [3]): <20 mmHg
13 | CC1(C)C=C(N2CCCC2=O)c2cc(C#N)ccc2C1=O | 900 nM | 800 nM | 30 µg/kg | –
14 | CC1(C)Oc2ccc(C#N)cc2C(N2CCCC2=O)C1O (racemic) [CROMAKALIM] | – | – | 50 µg/kg | –
15 | CC1(C)Oc2ccc(C#N)cc2[C@@H](N2CCCC2=O)[C@@H]1O [LEVCROMAKALIM] | 300 nM | 100 nM | 10 µg/kg | Max fall in blood pressure (Rattus norvegicus [7]): 73 mmHg
